# Key:
# [1] = target: Signal transducer and activator of transcription 3 (Homo sapiens, UniProt P40763); assay: Inhibition of STAT3 in human HEK293T cells assessed as inhibition of IL-6 stimulated STAT3 phosphorylation by dual-luciferase reporter assay; type: cell-based
# [2] = Inhibition of ATP production in human BXPC-3 cells incubated for 20 to 24 hrs by ATP assay kit method; type: functional, cell-based
# Capan-2 = assay: Anti-proliferative activity against human Capan-2 cells assessed as cell growth inhibition incubated for 72 hrs by MTS assay; type: functional, cell-based; settings: Capan-2, 72 h
# BXPC-3 = assay: Anti-proliferative activity against human BXPC-3 cells assessed as cell growth inhibition incubated for 72 hrs by MTS assay; type: functional, cell-based; settings: BXPC-3, 72 h
# Sequence of Signal transducer and activator of transcription 3 (P40763 whole entry): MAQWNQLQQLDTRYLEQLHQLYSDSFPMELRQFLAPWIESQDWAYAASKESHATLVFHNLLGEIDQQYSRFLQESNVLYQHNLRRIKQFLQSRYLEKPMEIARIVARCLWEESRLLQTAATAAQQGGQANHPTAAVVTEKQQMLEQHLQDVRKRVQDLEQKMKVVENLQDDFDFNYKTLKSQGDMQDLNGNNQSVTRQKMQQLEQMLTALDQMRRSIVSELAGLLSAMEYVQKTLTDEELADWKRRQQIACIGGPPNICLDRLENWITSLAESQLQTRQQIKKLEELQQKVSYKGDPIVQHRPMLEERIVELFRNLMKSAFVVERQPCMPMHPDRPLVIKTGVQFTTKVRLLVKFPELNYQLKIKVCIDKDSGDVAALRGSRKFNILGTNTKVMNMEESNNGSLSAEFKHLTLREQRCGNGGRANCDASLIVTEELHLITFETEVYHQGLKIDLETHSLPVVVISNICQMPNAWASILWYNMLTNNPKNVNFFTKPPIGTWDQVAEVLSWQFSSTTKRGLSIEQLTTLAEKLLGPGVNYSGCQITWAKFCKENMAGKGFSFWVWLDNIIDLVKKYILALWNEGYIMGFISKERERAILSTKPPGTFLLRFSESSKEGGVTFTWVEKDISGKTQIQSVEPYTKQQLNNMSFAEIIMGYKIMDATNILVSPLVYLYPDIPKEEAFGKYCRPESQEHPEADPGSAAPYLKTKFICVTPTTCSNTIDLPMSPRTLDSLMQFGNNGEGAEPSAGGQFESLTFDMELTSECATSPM
IC50 [1] [nM],IC50 [2] [nM],IC50 (BXPC-3) [nM],SMILES,IC50 (Capan-2) [nM]
167,,,CCn1c(C(=O)N2CCN(Cc3ccc(OCC(F)(F)F)cc3)CC2)cc2ccc(Oc3cnc(-c4nc(-c5ccc(C(F)(F)F)cc5)no4)cn3)cc21,
134,,,COc1ccc(CN2CCN(C(=O)c3cc4ccc(Oc5cnc(-c6nc(-c7ccc(C(F)(F)F)cc7)no6)cn5)cc4n3C)CC2)cc1F,
101,117,,Cn1c(C(=O)N2CCN(Cc3ccc(OCC(F)(F)F)c(F)c3)CC2)cc2ccc(Oc3cnc(-c4nc(-c5ccc(C(F)(F)F)cc5)no4)cn3)cc21,
> 1000,,,C=CCn1c(C(=O)N2CCN(Cc3ccc(OCC(F)(F)F)cc3)CC2)cc2ccc(Oc3cnc(-c4nc(-c5ccc(C(F)(F)F)cc5)no4)cn3)cc21,
19.8,12.6,1.5,COc1cccc(-c2noc(-c3cnc(Oc4ccc5cc(C(=O)N6CCN(Cc7ccc(OCC(F)(F)F)cc7)CC6)n(C)c5c4)cn3)n2)c1,6.5
492,,,Cc1ccc(CN2CCN(C(=O)c3cc4ccc(Oc5cnc(-c6nc(-c7ccc(C(F)(F)F)cc7)no6)cn5)cc4n3C)CC2)cc1,
> 1000,,,COC(=O)Cn1c(C(=O)N2CCN(Cc3ccc(OCC(F)(F)F)cc3)CC2)cc2ccc(Oc3cnc(-c4nc(-c5ccc(C(F)(F)F)cc5)no4)cn3)cc21,
217,,,Cn1c(C(=O)N2CCN(Cc3ccc(OCC(F)(F)F)cc3)CC2)cc2ccc(Oc3cnc(-c4nc(-c5ccccc5)no4)cn3)cc21,
63.6,,,COc1ccc(CN2CCN(C(=O)c3cc4ccc(Oc5cnc(-c6nc(-c7ccc(C(F)(F)F)cc7)no6)cn5)cc4n3C)CC2)cc1,
72.4,102,,Cn1c(C(=O)N2CCN(Cc3ccc(C(F)(F)F)cc3)CC2)cc2ccc(Oc3cnc(-c4nc(-c5ccc(C(F)(F)F)cc5)no4)cn3)cc21,
1110,1.6,1.9,CCN1CCN(C(=O)c2cc3ccc(Oc4cnc(-c5nc(-c6ccc(C(F)(F)F)cc6)no5)cn4)cc3n2C)CC1,1
39.2,10.5,11.4,Cn1c(C(=O)N2CCN(Cc3ccc(OCC(F)(F)F)cc3)CC2)cc2ccc(Oc3cnc(-c4nc(-c5ccc(OC(F)(F)F)cc5)no4)cn3)cc21,6.4
76.1,,,Cn1c(C(=O)N2CCN(Cc3ccc(OC(F)(F)F)cc3)CC2)cc2ccc(Oc3cnc(-c4nc(-c5ccc(C(F)(F)F)cc5)no4)cn3)cc21,
> 1000,,,Cn1c(C(=O)N2CCN(Cc3ccccc3OCC(F)(F)F)CC2)cc2ccc(Oc3cnc(-c4nc(-c5ccc(C(F)(F)F)cc5)no4)cn3)cc21,
35.7,25.8,4.8,Cn1c(C(=O)N2CCN(Cc3ccc(OCC(F)(F)F)cc3)CC2)cc2ccc(Oc3cnc(-c4nc(-c5ccc(Cl)cc5)no4)cn3)cc21,12.6
30.5,25,,O=C(c1cc2ccc(Oc3cnc(-c4nc(-c5ccc(C(F)(F)F)cc5)no4)cn3)cc2[nH]1)N1CCN(Cc2ccc(OCC(F)(F)F)cc2)CC1,
> 1000,,,O=C(c1cc2ccc(Oc3cnc(-c4nc(-c5ccc(C(F)(F)F)cc5)no4)cn3)cc2n1Cc1ccccc1)N1CCN(Cc2ccc(OCC(F)(F)F)cc2)CC1,
45.5,56.5,1.3,COc1ccccc1-c1noc(-c2cnc(Oc3ccc4cc(C(=O)N5CCN(Cc6ccc(OCC(F)(F)F)cc6)CC5)n(C)c4c3)cn2)n1,8.6
613,,,CCCn1c(C(=O)N2CCN(Cc3ccc(OCC(F)(F)F)cc3)CC2)cc2ccc(Oc3cnc(-c4nc(-c5ccc(C(F)(F)F)cc5)no4)cn3)cc21,
337,,,CC(C)C(=O)n1c(C(=O)N2CCN(Cc3ccc(OCC(F)(F)F)cc3)CC2)cc2ccc(Oc3cnc(-c4nc(-c5ccc(C(F)(F)F)cc5)no4)cn3)cc21,

IC50 [1] [nM],IC50 [2] [nM],IC50 (BXPC-3) [nM],SMILES,IC50 (Capan-2) [nM]
> 1000,,,CN1CCN(C(=O)c2cc3ccc(Oc4cnc(-c5nc(-c6ccc(C(F)(F)F)cc6)no5)cn4)cc3n2C)CC1,
800,,,CCCN1CCN(C(=O)c2cc3ccc(Oc4cnc(-c5nc(-c6ccc(C(F)(F)F)cc6)no5)cn4)cc3n2C)CC1,
38.3,19.9,1.9,Cn1c(C(=O)N2CCN(Cc3ccc(OCC(F)(F)F)cc3)CC2)cc2ccc(Oc3cnc(-c4nc(-c5cccc(F)c5)no4)cn3)cc21,5
> 1000,,,Cc1cccc(CN2CCN(C(=O)c3cc4ccc(Oc5cnc(-c6nc(-c7ccc(C(F)(F)F)cc7)no6)cn5)cc4n3C)CC2)c1,
649,,,Cn1c(C(=O)N2CCN(Cc3ccc(Cl)cc3)CC2)cc2ccc(Oc3cnc(-c4nc(-c5ccc(C(F)(F)F)cc5)no4)cn3)cc21,
13.1,16.5,1.7,Cn1c(C(=O)N2CCN(Cc3ccc(OCC(F)(F)F)cc3)CC2)cc2ccc(Oc3cnc(-c4nc(-c5ccccc5F)no4)cn3)cc21,7.7
> 1000,,,Cn1c(C(=O)N2CCN(C(=O)c3ccc(OCC(F)(F)F)cc3)CC2)cc2ccc(Oc3cnc(-c4nc(-c5ccc(C(F)(F)F)cc5)no4)cn3)cc21,
> 1000,,,Cn1c(C(=O)N2CCN(Cc3cccc(C(F)(F)F)c3)CC2)cc2ccc(Oc3cnc(-c4nc(-c5ccc(C(F)(F)F)cc5)no4)cn3)cc21,
> 1000,,,COC(=O)CN1CCN(C(=O)c2cc3ccc(Oc4cnc(-c5nc(-c6ccc(C(F)(F)F)cc6)no5)cn4)cc3n2C)CC1,
> 1000,,,Cn1c(C(=O)N2CCN(C(=O)c3ccc(C(F)(F)F)cc3)CC2)cc2ccc(Oc3cnc(-c4nc(-c5ccc(C(F)(F)F)cc5)no4)cn3)cc21,
427,,,Cn1c(C(=O)N2CCN(Cc3ccc(F)cc3)CC2)cc2ccc(Oc3cnc(-c4nc(-c5ccc(C(F)(F)F)cc5)no4)cn3)cc21,
595,,,Cn1c(C(=O)N2CCN(CCc3ccccc3)CC2)cc2ccc(Oc3cnc(-c4nc(-c5ccc(C(F)(F)F)cc5)no4)cn3)cc21,
28.1,14.3,2.7,Cn1c(C(=O)N2CCN(Cc3ccc(OCC(F)(F)F)cc3)CC2)cc2ccc(Oc3cnc(-c4nc(-c5ccc(Br)cc5)no4)cn3)cc21,9.3
39.9,93.2,,COCCn1c(C(=O)N2CCN(Cc3ccc(OCC(F)(F)F)cc3)CC2)cc2ccc(Oc3cnc(-c4nc(-c5ccc(C(F)(F)F)cc5)no4)cn3)cc21,
> 1000,,,Cn1c(C(=O)N2CCN(Cc3cccc(OCC(F)(F)F)c3)CC2)cc2ccc(Oc3cnc(-c4nc(-c5ccc(C(F)(F)F)cc5)no4)cn3)cc21,
836,,,Cn1c(C(=O)N2CCN(Cc3ccc(Br)cc3)CC2)cc2ccc(Oc3cnc(-c4nc(-c5ccc(C(F)(F)F)cc5)no4)cn3)cc21,
> 1000,,,Cn1c(C(=O)N2CCN(C(=O)CCl)CC2)cc2ccc(Oc3cnc(-c4nc(-c5ccc(C(F)(F)F)cc5)no4)cn3)cc21,
> 1000,,,CCOC(=O)Cn1c(C(=O)N2CCN(Cc3ccc(OCC(F)(F)F)cc3)CC2)cc2ccc(Oc3cnc(-c4nc(-c5ccc(C(F)(F)F)cc5)no4)cn3)cc21,
22.3,32.5,3.3,Cn1c(C(=O)N2CCN(Cc3ccc(OCC(F)(F)F)cc3)CC2)cc2ccc(Oc3cnc(-c4nc(-c5ccc(C(F)(F)F)cc5)no4)cn3)cc21,8.6
